Assay results as given in ChEMBL document CHEMBL1132225, “Novel antidiabetic and hypolipidemic agents. 3. Benzofuran-containing thiazolidinediones” (J Med Chem, 1999).
Several values for one entry are separate records, joined by “and”; a condition that tells them apart may be missing. Equal values may be shown once. Activity calls are given as the source filed them. The rule behind the calls is not given here.

How the values were obtained:
[1] = species on record: Mus musculus; assay: Percent reduction of plasma glucose after 6 days of treatment (various doses).; format: functional
[2] = test system: Mus musculus; assay: Percent reduction of plasma glucose (PG) after 6 days of treatment. It is the mean of standard deviation observed in plasma glucose (PG) in db/db mice at dose of 200 mg/kg/day; format: functional; settings: route oral
[3] = species on record: Mus musculus; assay: The compound was tested for percent reduction of plasma triglyceride after 6 days of treatment; Not Active; format: functional, organism-based
[4] = test system: Mus musculus; assay: Percent reduction of plasma glucose (PG) after 6 days of treatment. It is the mean of standard deviation observed in plasma glucose (PG) in db/db mice at dose of 100 mg/kg/day; format: functional; settings: route oral
[5] = test system: Mus musculus; assay: Percent reduction in plasma triglyceride (TG) after 6 days of treatment. It is the mean of standard deviation observed in plasma triglyceride (TG) in db/db mice at dose of 100 mg/kg/day; NA = Not Active; format: functional
[6] = target: T1, Peroxisome proliferator-activated receptor alpha (Homo sapiens) (UniProt Q07869); assay: The fold activation against 50 u M Peroxisome proliferator activated receptor alpha(amino acids 167-468)
T1 sequence (whole entry): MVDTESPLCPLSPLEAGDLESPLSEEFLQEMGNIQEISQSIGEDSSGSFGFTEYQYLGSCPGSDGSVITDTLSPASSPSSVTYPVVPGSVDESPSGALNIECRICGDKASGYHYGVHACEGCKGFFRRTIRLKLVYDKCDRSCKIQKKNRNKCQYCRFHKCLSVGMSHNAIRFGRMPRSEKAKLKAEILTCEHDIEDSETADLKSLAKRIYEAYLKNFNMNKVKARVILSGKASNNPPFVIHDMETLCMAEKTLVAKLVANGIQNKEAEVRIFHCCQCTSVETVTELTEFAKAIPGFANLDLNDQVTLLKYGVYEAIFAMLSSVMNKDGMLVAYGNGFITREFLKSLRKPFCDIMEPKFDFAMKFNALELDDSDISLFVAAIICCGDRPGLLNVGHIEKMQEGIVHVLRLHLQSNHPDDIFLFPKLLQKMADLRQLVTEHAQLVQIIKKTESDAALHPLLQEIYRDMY

[7] = target: T2, Peroxisome proliferator-activated receptor gamma (Homo sapiens) (UniProt P37231); assay: The fold activation against 1 amino acids 174-475)
T2 sequence (whole entry): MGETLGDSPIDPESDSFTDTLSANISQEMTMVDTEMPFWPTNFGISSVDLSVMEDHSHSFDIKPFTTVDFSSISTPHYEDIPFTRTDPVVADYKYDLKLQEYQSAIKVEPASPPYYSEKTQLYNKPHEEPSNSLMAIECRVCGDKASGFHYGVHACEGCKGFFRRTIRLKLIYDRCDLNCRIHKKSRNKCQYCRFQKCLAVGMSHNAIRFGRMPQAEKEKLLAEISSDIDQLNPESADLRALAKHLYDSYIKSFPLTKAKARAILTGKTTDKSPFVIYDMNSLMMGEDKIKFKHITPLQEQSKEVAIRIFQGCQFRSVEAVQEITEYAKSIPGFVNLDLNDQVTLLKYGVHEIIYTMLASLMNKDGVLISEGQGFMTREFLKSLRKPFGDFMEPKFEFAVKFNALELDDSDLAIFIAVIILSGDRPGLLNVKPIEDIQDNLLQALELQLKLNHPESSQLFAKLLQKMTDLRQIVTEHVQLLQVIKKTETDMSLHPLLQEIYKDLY

[8] = target: T1, Peroxisome proliferator-activated receptor alpha (Homo sapiens); assay: Compound was tested for fold transactivation of human Peroxisome proliferator activated receptor alpha at 50 uM
[9] = test system: Mus musculus; assay: Percent reduction of plasma glucose (PG) after 6 days of treatment. It is the mean of standard deviation observed in plasma glucose (PG) in db/db mice at dose of 30 mg/kg/day; format: functional; settings: route oral
[10] = test system: Mus musculus; assay: Percent reduction in plasma triglyceride (TG) after 6 days of treatment. It is the mean of standard deviation observed in plasma triglyceride (TG) in db/db mice at dose of 30 mg/kg/day; format: functional; settings: route oral
[11] = test system: Mus musculus; assay: Percent reduction in plasma triglyceride (TG) after 6 days of treatment. It is the mean of standard deviation observed in plasma triglyceride (TG) in db/db mice at dose of 200 mg/kg/day; NA = Not Active; format: functional, organism-based
[12] = species on record: Mus musculus; assay: The compound was tested for percent reduction of plasma triglyceride after 6 days of treatment; not active; format: functional, organism-based
[13] = species on record: Mus musculus; assay: The compound was tested for percent reduction of plasma triglyceride after 6 days of treatment.; format: functional; design: concentration or dose not given beside the values
[14] = Pharmacokinetic Parameter, half life period measured in Female Wistar Rats at 100 mg/kg by po administration; format: ADME, organism-based; design: dose 100 mg/kg, route oral; settings: rat, in vivo
[15] = Pharmacokinetic Parameter, Tmax is the time at which maximum concentration (Cmax) is reached in Female Wistar Rats at 100 mg/kg by po administration; format: ADME, organism-based; design: dose 100 mg/kg, route oral; settings: rat, in vivo
[16] = Pharmacokinetic Parameter, AUC (0-infinity) is the area under the plasma concentration versus time curve extrapolated to infinity in Female Wistar Rats at 100 mg/kg by po administration; format: ADME, organism-based; design: time infinity, dose 100 mg/kg, route oral; settings: rat, read-out: AUC 0-infinity
[17] = Pharmacokinetic Parameter, AUC (0-t) is the area under the plasma concentration versus time curve in Female Wistar Rats at 100 mg/kg by po administration; format: ADME, organism-based; design: dose 100 mg/kg, route oral; settings: rat
[18] = Pharmacokinetic Parameter, Cmax is observed maximum plasma concentration in Female Wistar Rats at 100 mg/kg by po administration; format: ADME, organism-based; design: dose 100 mg/kg, route oral; settings: rat
[19] = Pharmacokinetic Parameter, Kel is elimination rate constant in Female Wistar Rats at 100 mg/kg by po administration; format: ADME, organism-based; design: dose 100 mg/kg, route oral; settings: rat, in vivo
[20] = test system: Mus musculus; assay: Percent reduction in plasma triglyceride (TG) after 6 days of treatment. It is the mean of standard deviation observed in plasma triglyceride (TG) in db/db mice at dose of 100 mg/kg/day; format: functional; settings: route oral
[21] = test system: Mus musculus; assay: Percent reduction of plasma glucose (PG) after 6 days of treatment. It is the mean of standard deviation observed in plasma glucose (PG) in db/db mice at dose of 100 mg/kg/day; NA = Not Active; format: functional, organism-based
[22] = species on record: Mus musculus; assay: The compound was tested for percent reduction of plasma glucose after 6 days of treatment; Not Active; format: functional, organism-based

## Cc1c(C)c2c(c(C)c1O)C(CN(C)CCOc1ccc(CC3SC(=O)NC3=O)cc1)C(C)(C)O2 (stereo not given)
[1]
  Reduction: 19%
[2]
  PG: 19%

## Cc1oc2c(C)c(C)c(O)c(C)c2c1CN1CCC[C@@H](Oc2ccc(/C=C3\SC(=O)NC3=O)cc2)C1
[1]
  Reduction: 22%
[3]
  Reduction: inactive
[4]
  PG: 22%
[5]
  TG: inactive

## Cc1c(C)c2c(c(C)c1O)C(CN1CCC[C@H]1COc1ccc(/C=C3\SC(=O)NC3=O)cc1)C(C)(C)O2 (stereo not given in full)
[1]
  Reduction: 19%
[3]
  Reduction: inactive
[4]
  PG: 19%
[5]
  TG: inactive
[6]
  Fold activation: 0.28
[7]
  Fold activation: 0.84
[8]
  Transactivation: 0.28 fold

## Cc1c(C)c2c(c(C)c1OCc1ccccc1)C(CN1CCC[C@H]1COc1ccc(CC3SC(=O)NC3=O)cc1)C(C)(C)O2.O=C(O)/C=C\C(=O)O (stereo not given in full)
[9]
  PG: 24%
[10]
  TG: 64%

## Cc1oc2c(C)c(C)c(OCc3ccccc3)c(C)c2c1CN1CCC[C@H]1COc1ccc(/C=C2\SC(=O)NC2=O)cc1
[1]
  Reduction: 50%
[3]
  Reduction: inactive
[4]
  PG: 50%
[5]
  TG: inactive

## Cc1c(C)c2c(c(C)c1OCc1ccccc1)C(CN(C)CCOc1ccc(/C=C3\SC(=O)NC3=O)cc1)C(C)(C)O2 (stereo not given)
[1]
  Reduction: 23%
[3]
  Reduction: inactive
[2]
  PG: 23%
[11]
  TG: inactive

## Cc1c(C)c2c(c(C)c1OCc1ccccc1)C(COc1ccc(/C=C3\SC(=O)NC3=O)cc1)C(C)(C)O2 (stereo not given)
[1]
  Reduction: 10%
[12]
  Reduction: inactive
[2]
  PG: 10%
[11]
  TG: inactive

## Cc1c(C)c2c(c(C)c1O)C(COc1ccc(/C=C3\SC(=O)NC3=O)cc1)C(C)(C)O2 (stereo not given)
[1]
  Reduction: 11%
[12]
  Reduction: inactive
[2]
  PG: 11%
[11]
  TG: inactive

## Cc1c(C)c2c(c(C)c1O)C(COc1ccc(CC3SC(=O)NC3=O)cc1)C(C)(C)O2 (stereo not given)
[1]
  Reduction: 12%
[13]
  Reduction: 31%

## Cc1c(C)c2c(c(C)c1O)C(CN(C)CCOc1ccc(/C=C3\SC(=O)NC3=O)cc1)C(C)(C)O2 (stereo not given)
[1]
  Reduction: 28%
[13]
  Reduction: 76%
[4]
  PG: 28%
[5]; route oral
  TG: 76%

## Cc1c(C)c2c(c(C)c1OCc1ccccc1)C(CN1CCC[C@H]1COc1ccc(/C=C3\SC(=O)NC3=O)cc1)C(C)(C)O2.O=C(O)/C=C\C(=O)O (stereo not given in full)
[14]
  half-life: 10.1 h
[15]
  Tmax: 5 h
[16]
  AUC(0-inf): 65000 ng·h/mL
[17]
  AUC(0-t): 53800 ng·h/mL
[18]
  Cmax: 4300 ng/mL
[19]
  k el: 1.94e-05 s⁻¹
[9]
  PG: 45%
[10]
  TG: 42%

## Cc1c(C)c2c(c(C)c1OCc1ccccc1)C(CN1CCC[C@H]1COc1ccc(CC3SC(=O)NC3=O)cc1)C(C)(C)O2 (stereo not given in full) [listing 1 of 2 here]
[6]
  Fold activation: 0.33
[7]
  Fold activation: 0.17
[8]
  Transactivation: 0.33 fold

## Cc1c(C)c2c(c(C)c1OCc1ccccc1)C(CN1CCC[C@H]1COc1ccc(CC3SC(=O)NC3=O)cc1)C(C)(C)O2 (stereo not given in full) [listing 2 of 2 here]
[1]
  Reduction: 48% and 37%
[13]
  Reduction: 31% and 22%
[4]
  PG: 48%
[9]
  PG: 37%
[20]
  TG: 31%
[10]
  TG: 22%

## Cc1oc2c(C)c(C)c(OCc3ccccc3)c(C)c2c1CN1CCC[C@H]1COc1ccc(CC2SC(=O)NC2=O)cc1 (stereo not given in full)
[21]
  PG: inactive
[5]
  TG: inactive

## Cc1oc2c(C)c(C)c(OCc3ccccc3)c(C)c2c1CN1CCC[C@@H](Oc2ccc(/C=C3\SC(=O)NC3=O)cc2)C1
[22]
  Reduction: inactive
[12]
  Reduction: inactive
[21]
  PG: inactive
[5]
  TG: inactive

## Cc1c(C)c2c(c(C)c1OCc1ccccc1)C(CN1CCC[C@H]1COc1ccc(/C=C3\SC(=O)NC3=O)cc1)C(C)(C)O2.Cl (stereo not given in full)
[1]
  Reduction: 25%
[13]
  Reduction: 57%
[9]
  PG: 25%
[10]
  TG: 57%

## Cc1c(C)c2c(c(C)c1O)C(CN1CCC[C@H]1COc1ccc(CC3SC(=O)NC3=O)cc1)C(C)(C)O2 (stereo not given in full)
[1]
  Reduction: 37% and 28%
[13]
  Reduction: 33% and 29%
[4]
  PG: 37%
[9]
  PG: 28%
[20]
  TG: 33%
[10]
  TG: 29%
[6]
  Fold activation: 0.46
[7]
  Fold activation: 1.21
[8]
  Transactivation: 0.46 fold

## Cc1c(C)c2c(c(C)c1OCc1ccccc1)C(CN1CCC[C@@H](Oc3ccc(/C=C4\SC(=O)NC4=O)cc3)C1)C(C)(C)O2 (stereo not given in full)
[22]
  Reduction: inactive
[13]
  Reduction: 52%
[21]
  PG: inactive
[20]
  TG: 52%

## Cc1c(C)c2c(c(C)c1OCc1ccccc1)C(CN1CCC[C@H]1COc1ccc(/C=C3\SC(=O)NC3=O)cc1)C(C)(C)O2 (stereo not given in full)
[6]
  Fold activation: 0.43
[7]
  Fold activation: 1.03
[8]
  Transactivation: 0.43 fold
